Results: US20100093702A1, “METHYLENE AMINES OF THIENO[2,3-d]PYRIMIDINE AND THEIR USE AS ADENOSINE A2a RECEPTOR ANTAGONISTS” (priority 2008, published 2010)

What was measured:
[1] = biological target: T1, human adenosine A2a receptor (Homo sapiens, UniProt P29274); assay: Adenosine A2a Receptor Functional Assay (A2AGAL2); type: cell-based; settings: CHO-K1 cells, cAMP inducible beta-galactosidase reporter, 15 nM NECA agonist challenge
T1 construct: expressed in transfected cells; host or cells: CHO-K1
Description: Adenosine A2a Receptor Functional Assay (A2AGAL2)
To initiate the functional assay, cryopreserved CHO-K1 cells overexpressing the human adenosine A2a receptor and containing a cAMP inducible beta-galactosidase reporter gene were thawed, centrifuged, DMSO containing media removed, and then seeded with fresh culture media into clear 384-well tissue culture treated plates (BD #353961) at a concentration of 10K cells/well. Prior to assay, these plates were cultured for two days at 37° C., 5% CO2, 90% Rh. On the day of the functional assay, culture media was removed and replaced with 45 uL assay medium (Hams/F-12 Modified (Mediatech # 10-080CV) supplemented w/0.1% BSA). Test compounds were diluted and 11 point curves created at a 1000× concentration in 100% DMSO. Immediately after addition of assay media to the cell plates, 50 nL of the appropriate test compound antagonist or agonist control curves were added to cell plates using a Cartesian Hummingbird. Compound curves were allowed to incubate at room temperature on cell plates for approximately 15 minutes before addition of a 15 nM NECA (Sigma E2387) agonist challenge (5 uL volume). A control curve of NECA, a DMSO/Media control, and a single dose of Forskolin (Sigma F3917) were also included on each plate. After additions, cell plates were allowed to incubate at 37° C., 5% CO2, 90% Rh for 5.5-6 hours. After incubation, media was removed, and cell plates were washed 1×50 uL with DPBS w/o Ca & Mg (Mediatech 21-031-CV). Into dry wells, 20 uL of 1× Reporter Lysis Buffer (Promega E3971 (diluted in dH2O from 5× stock)) was added to each well and plates frozen at −20° C. overnight. For β-galactosidase enzyme calorimetric assay, plates were thawed out at room temperature and 20 μL 2× assay buffer (Promega) was added to each well. Color was allowed to develop at 37° C., 5% CO2, 90% Rh for 1-1.5 h or until reasonable signal appeared. The calorimetric reaction was stopped with the addition of 60 μL/well 1M sodium carbonate. Plates were counted at 405 nm on a SpectraMax Microplate Reader (Molecular Devices). Data was analyzed in Microsoft Excel and IC/EC50 curves were fit using a standardized macro.

[2] = biological target: T2, human A2a adenosine receptor (Homo sapiens, UniProt P29274); assay: Ligand Binding Assay for Adenosine A2a Receptor (A2A-B); settings: HEK293 plasma membrane, radioligand [3H]CGS21680
T2 construct: purchased PerkinElmer RB-HA2a; host or cells: HEK293
Description: Ligand Binding Assay for Adenosine A2a Receptor
Ligand binding assay of adenosine A2a receptor was performed using plasma membrane of HEK293 cells containing human A2a adenosine receptor (PerkinElmer, RB-HA2a) and radioligand [^3H]CGS21680 (PerkinElmer, NET 1021). Assay was set up in 96-well polypropylene plate in total volume of 200 μL by sequentially adding 20 μL 1:20 diluted membrane, 130 μL assay buffer (50 mM Tris.HCl, pH7.4 10 mM MgCl2, 1 mM EDTA) containing [^3H] CGS21680, 50 μL diluted compound (4×) or vehicle control in assay buffer. Nonspecific binding was determined by […] NECA. Reaction was carried out at room temperature for 2 hours before filtering through 96-well GF/C filter plate pre-soaked in 50 mM Tris.HCl, pH7.4 containing 0.3% polyethylenimine. Plates were then washed 5 times with cold 50 mM Tris.HCl, pH7.4, dried and sealed at the bottom. Microscintillation fluid 30 μL was added to each well and the top sealed. Plates were counted on Packard Topcount for [^3H]. Data was analyzed in Microsoft Excel and GraphPad Prism programs. (Varani, K.; Gessi, S.; Dalpiaz, A.; Borea, P. A. British Journal of Pharmacology, 1996, 117, 1693)

[3] = biological target: T3, human adenosine A1 receptor (Homo sapiens, UniProt P30542); assay: Adenosine A1 Receptor Functional Assay (A1GAL2); type: cell-based; settings: CHO-K1 cells, cAMP inducible beta-galactosidase reporter, 4 nM r-PIA/1 uM Forskolin challenge
T3 construct: expressed in transfected cells; host or cells: CHO-K1
T3 sequence (P30542 1-326): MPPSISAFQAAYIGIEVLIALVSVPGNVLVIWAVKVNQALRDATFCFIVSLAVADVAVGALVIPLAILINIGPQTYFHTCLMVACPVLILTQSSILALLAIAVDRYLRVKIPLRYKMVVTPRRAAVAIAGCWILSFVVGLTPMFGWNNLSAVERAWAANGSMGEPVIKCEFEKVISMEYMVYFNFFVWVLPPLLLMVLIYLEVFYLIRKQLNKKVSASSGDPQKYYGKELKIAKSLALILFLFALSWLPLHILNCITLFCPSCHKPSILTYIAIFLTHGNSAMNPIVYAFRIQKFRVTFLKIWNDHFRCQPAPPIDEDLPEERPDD
Description: Adenosine A1 Receptor Functional Assay (A1GAL2)
To initiate the functional assay, cryopreserved CHO-K1 cells overexpressing the human adenosine A1 receptor and containing a cAMP inducible beta-galactosidase reporter gene were thawed, centrifuged, DMSO containing media removed, and then seeded with fresh culture media into clear 384-well tissue culture treated plates (BD #353961) at a concentration of 10K cells/well. Prior to assay, these plates were cultured for two days at 37° C., 5% CO2, 90% Rh. On the day of the functional assay, culture media was removed and replaced with 45 uL assay medium (Hams/F-12 Modified (Mediatech # 10-080CV) supplemented w/0.1% BSA). Test compounds were diluted and 11 point curves created at a 1000× concentration in 100% DMSO. Immediately after addition of assay media to the cell plates, […] of the appropriate test compound antagonist or agonist control curves were added to cell plates using a Cartesian Hummingbird. Compound curves were allowed to incubate at room temperature on cell plates for approximately 15 minutes before addition of a 4 nM r-PIA (Sigma P4532)/1 uM Forskolin (Sigma F3917) agonist challenge (5 uL volume). A control curve of r-PIA in 1 uM Forskolin, a DMSO/Media control, and a single dose of Forskolin were also included on each plate. After additions, cell plates were allowed to incubate at 37° C., 5% CO2, 90% Rh for 5.5-6 hours. After incubation, media was removed, and cell plates were washed 1×50 uL with DPBS w/o Ca & Mg (Mediatech 21-031-CV).
Into dry wells, 20 uL of 1× Reporter Lysis Buffer (Promega E3971 (diluted in dH2O from 5× stock)) was added to each well and plates frozen at −20° C. overnight. For β-galactosidase enzyme calorimetric assay, plates were thawed out at room temperature and 20 μL 2× assay buffer (Promega) was added to each well. Color was allowed to develop at 37° C., 5% CO2, 90% Rh for 1-1.5 h or until reasonable signal appeared. The calorimetric reaction was stopped with the addition of 60 μL/well 1M sodium carbonate. Plates were counted at 405 nm on a SpectraMax Microplate Reader (Molecular Devices). Data was analyzed in Microsoft Excel and IC/EC50 curves were fit using a standardized macro.

T2 sequence (P29274 whole entry): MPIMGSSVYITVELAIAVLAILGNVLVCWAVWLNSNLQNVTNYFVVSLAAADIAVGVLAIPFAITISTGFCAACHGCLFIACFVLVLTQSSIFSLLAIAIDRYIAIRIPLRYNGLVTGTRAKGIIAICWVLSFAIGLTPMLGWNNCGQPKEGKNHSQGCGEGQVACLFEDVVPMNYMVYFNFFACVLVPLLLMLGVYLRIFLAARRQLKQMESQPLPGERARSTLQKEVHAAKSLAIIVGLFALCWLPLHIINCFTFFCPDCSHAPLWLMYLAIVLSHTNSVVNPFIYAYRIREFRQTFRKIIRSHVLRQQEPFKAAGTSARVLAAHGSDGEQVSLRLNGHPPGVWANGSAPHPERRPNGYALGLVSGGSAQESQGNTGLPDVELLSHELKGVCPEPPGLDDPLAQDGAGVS
T1 sequence (P29274 whole entry): as above

Compound | Ki [1] [nM] | Ki [2] [nM] | Ki [3] [nM]
Nc1nc(-c2ccc(Br)o2)nc2sc(CN3CCOCC3)cc12 [Example 7, 2-(5-Bromo-furan-2-yl)-6-morpholin-4-ylmethyl-thieno[2,3-d]pyrimidin-4-ylamine] | 18.3 | 202 | 698
Nc1nc(-c2ccco2)nc2sc(CN3CCCC3)cc12 [Example 28, 2-Furan-2-yl-6-pyrrolidin-1-ylmethyl-thieno[2,3-d]pyrimidin-4-ylamine] | 28.1 | 14.4 | 6430
Nc1nc(-c2ccco2)nc2sc(CNC3CC3)cc12 [Example 29, 6-Cyclopropylaminomethyl-2-furan-2-yl-thieno[2,3-d]pyrimidin-4-ylamine] | 36.2 | 93.3 | 1890
Nc1nc(-c2cccs2)nc2sc(CN3CCCC3)cc12 [Example 30, 6-Pyrrolidin-1-ylmethyl-2-thiophen-2-yl-thieno[2,3-d]pyrimidin-4-ylamine] | 115 | 139 | > 10000
CCN(CC)Cc1cc2c(N)nc(-c3ccco3)nc2s1 [Example 31, 6-Diethylaminomethyl-2-furan-2-yl-thieno[2,3-d]pyrimidin-4-ylamine] | 55.2 | 137 | 2130
Nc1nc(-c2ccco2)nc2sc(CNC3CCCCC3)cc12 [Example 32, 6-Cyclohexylaminomethyl-2-furan-2-yl-thieno[2,3-d]pyrimidin-4-ylamine] | 168 | 142 | 2480
COCCNCc1cc2c(N)nc(-c3ccco3)nc2s1 [Example 33, 2-Furan-2-yl-6-[(2-methoxy-ethylamino)-methyl]-thieno[2,3-d]pyrimidin-4-ylamine] |  | 216 | 
Cc1ccc(-c2nc(N)c3cc(CN4CCCCC4)sc3n2)o1 [Example 34, 2-(5-Methyl-furan-2-yl)-6-piperidin-1-ylmethyl-thieno[2,3-d]pyrimidin-4-ylamine] | 28.4 | 18.7 | 606
Nc1nc(-c2ccc(Br)o2)nc2sc(CN3CCCC3)cc12 [Example 35, 2-(5-Bromo-furan-2-yl)-6-pyrrolidin-1-ylmethyl-thieno[2,3-d]pyrimidin-4-ylamine] | 22 | 15 | 800

Next, values leading:

Ki [1] [nM] | Ki [2] [nM] | Ki [3] [nM] | Compound
 | 371 |  | Cc1ccc(-c2nc(N)c3cc(CN4CCN(C)CC4)sc3n2)o1 [Example 36, 2-(5-Methyl-furan-2-yl)-6-(4-methyl-piperazin-1-ylmethyl)-thieno[2,3-d]pyrimidin-4-ylamine]
31.9 | 32.7 | 1050 | Cc1ccc(-c2nc(N)c3cc(CN4CCOCC4)sc3n2)o1 [Example 38, 2-(5-Methyl-furan-2-yl)-6-morpholin-4-ylmethyl-thieno[2,3-d]pyrimidin-4-ylamine]
25.9 | 10.9 | 620 | Cc1ccc(-c2nc(N)c3cc(CN4CCCC4)sc3n2)o1 [Example 39, 2-(5-Methyl-furan-2-yl)-6-pyrrolidin-1-ylmethyl-thieno[2,3-d]pyrimidin-4-ylamine]
 | 375 |  | Cc1ccc(-c2nc(N)c3cc(CN4CCC(O)C4)sc3n2)o1 (stereo not drawn) [Example 40, 1-[4-Amino-2-(5-methyl-furan-2-yl)-thieno[2,3-d]pyrimidin-6-ylmethyl]-pyrrolidin-3-ol]
202 | 187 | 3320 | Cc1ccc(-c2nc(N)c3cc(CN4CCc5ccccc5C4)sc3n2)o1 [Example 41, 6-(3,4-Dihydro-1H-isoquinolin-2-ylmethyl)-2-(5-methyl-furan-2-yl)-thieno[2,3-d]pyrimidin-4-ylamine]
53 | 88.1 | 18200 | Nc1nc(-c2ccco2)nc2sc(CN3CCOCC3)cc12 [Example 42, 2-Furan-2-yl-6-morpholin-4-ylmethyl-thieno[2,3-d]pyrimidin-4-ylamine]
5.65 | 1.4 | 99.8 | C[C@@H]1CCC[C@H](C)N1Cc1cc2c(N)nc(-c3ccco3)nc2s1 [Example 44, 6-(2,6-Dimethyl-piperidin-1-ylmethyl)-2-furan-2-yl-thieno[2,3-d]pyrimidin-4-ylamine]
229 | 190 | 2720 | Nc1nc(-c2ccco2)nc2sc(CN3CCC(=O)CC3)cc12 [Example 45, 1-(4-Amino-2-furan-2-yl-thieno[2,3-d]pyrimidin-6-ylmethyl)-piperidin-4-one]
143 | 89 | 3550 | CN(C)Cc1cc2c(N)nc(-c3ccco3)nc2s1 [Example 46, 6-Dimethylaminomethyl-2-furan-2-yl-thieno[2,3-d]pyrimidin-4-ylamine]
9.8 | 5.9 | 1340 | Nc1nc(-c2ccco2)nc2sc(CN3CCC(F)C3)cc12 (stereo not drawn) [Example 51, 6-(3-Fluoro-pyrrolidin-1-ylmethyl)-2-furan-2-yl-thieno[2,3-d]pyrimidin-4-ylamine]
297 | 220 | 4000 | Nc1nc(-c2ccco2)nc2sc(CN3CCC(O)CC3)cc12 [Example 52, 1-(4-Amino-2-furan-2-yl-thieno[2,3-d]pyrimidin-6-ylmethyl)-piperidin-4-ol]
12.3 | 14 | 656 | Nc1nc(-c2ccco2)nc2sc(CN3CC[C@H](F)C3)cc12 [Example 53, 6-(3-Fluoro-pyrrolidin-1-ylmethyl)-2-furan-2-yl-thieno[2,3-d]pyrimidin-4-ylamine]
